Experimental data taken from PubChem BioAssay (NCI).
“And” between values parts separate entries of the source, which are not always exact repeats. Equal values may be shown once.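 1) Cells in 96-well plates. 2) Compound, 48 h, 5 concentrations. 3) Linear interpolation between surrounding doses. 4) Unreached endpoint = highest concentration. Abbreviation: GI50, concentration required for 50% inhibition of growth. TGI is the concentration that stops growth completely.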

Columns and labels:
Test in all cases: growth of human tumour cells (NCI), 48 h
HOP-62 NSCLC = tested on: HOP-62 NSCLC
LOX IMVI melanoma = tested on: LOX IMVI melanoma
MALME-3M melanoma = tested on: MALME-3M melanoma
OVCAR-3 ovarian = tested on: OVCAR-3 ovarian
HOP-92 NSCLC = tested on: HOP-92 NSCLC
M14 melanoma = tested on: M14 melanoma

| SMILES | TGI (HOP-62 NSCLC) [µM] | TGI (LOX IMVI melanoma) [µM] | TGI (MALME-3M melanoma) [µM] | TGI (OVCAR-3 ovarian) [µM] | TGI (HOP-92 NSCLC) [µM] | TGI (M14 melanoma) [µM] | GI50 (HOP-62 NSCLC) [µM] | GI50 (MALME-3M melanoma) [µM] | GI50 (OVCAR-3 ovarian) [µM] | GI50 (HOP-92 NSCLC) | GI50 (M14 melanoma) [µM] | GI50 (LOX IMVI melanoma) [µM] |
| --- | --- | --- | --- | --- | --- | --- | --- | --- | --- | --- | --- | --- |
| C=CCC1(C)CCCCC1(O)CS(=O)c1ccccc1 (stereo not given) | > 100 | > 100 | > 100 | > 100 | > 100 | > 100 | – | – | – | – | – | – |
| Nc1ccc(C2=N/C(=C\c3cccc(N)c3)C(=O)O2)cc1 | – | – | > 100 | > 100 | > 100 | > 100 | – | – | – | – | – | – |
| COc1cc(-c2nnc3n2NC=C(C(=O)O)S3)cc(OC)c1OC | > 100 | > 100 | > 100 | > 100 | > 100 | > 100 | – | – | – | – | – | – |
| Cc1ccc2c(c1-c1ccccc1)C(=O)OC2 | > 100 | – | > 100 | > 100 | – | > 100 | – | – | – | – | – | – |
| CCOC(=O)C1=C(Nc2ccc(Br)cc2)OCC1=O | > 100 | – | > 100 | > 100 | > 100 | > 100 | – | – | – | – | – | – |
| NC(=S)N/N=C1\CCCC\C1=C/c1ccccc1 | > 100 | > 100 | > 100 | > 100 | > 100 | > 100 | – | – | – | – | – | – |
| COC(=O)c1c[nH]cc1CCCCc1c[nH]cc1C(=O)OC | > 100 | > 100 | > 100 | > 100 | > 100 | – | – | – | – | – | – | – |
| Cc1c(Cl)cccc1NC(=O)c1cccc([N+](=O)[O-])c1O | 29.3 | 36.3 | 38.7 | 51.4 | 7.88 | > 78.9 | – | – | – | – | – | – |
| CCc1cccc(C)c1NC(=O)CC1C(=O)Nc2ccccc2S1=O (stereo not given) | > 100 | > 100 | > 100 | > 100 | > 100 | > 100 | – | – | – | – | – | – |
| CC(C)(C)OC(=O)N1C2CCCC23O[C@@H]1c1cc2c(cc1C3=O)OCO2 (stereo not given in full) | > 100 | – | > 100 | 40.2 | > 100 | > 100 | – | – | – | – | – | – |
| CCOC(=O)C(C)(c1c(C)[nH]c2ccccc12)c1c(C)[nH]c2ccccc12 | 43.6 | – | 43 | 34 | – | 29.8 | – | – | – | – | – | – |
| CCC[CH2][Sn]1([CH2]CCC)[O]CC(COc2c(Cl)cc(Cl)cc2Cl)[O]1 (stereo not given) | 7.97 | – | 2.34 | 3.03 | 3.06 | 3.13 | 2.63 | 1.06 | 1.65 | 1.55 µM | 1.72 | – |
| N#Cc1c(-c2ccco2)cc(-c2ccc(N)cc2)[nH]c1=O | > 100 | > 100 | > 100 | > 100 | > 100 | > 100 | – | – | – | – | – | – |
| C[P+](C)(C)c1ccccc1 | > 100 | > 100 | > 100 | > 100 | > 100 | > 100 | – | – | – | – | – | – |
| COc1cc2c(cc1OC)C1Cc3cc(OC)c(OC)cc3N1CC2 (stereo not given) | 84.9 | – | 54.4 | > 100 | > 100 | 53.4 | – | – | – | – | – | – |
| O=C1c2ccc3c4ccccc4n(-c4ccccc4)c3c2C(=O)N1c1ccc(Cl)cc1 | > 100 | > 100 | > 100 | > 100 | 75 | > 100 | – | – | – | – | – | – |
| O=C1C2[C@@H](C(=O)N1c1ccc(Br)cc1)C13C(=CC2([N+](=O)[O-])[C@@H]2C(=O)N(c4ccc(Br)cc4)C(=O)[C@@H]21)c1ccccc1N3c1ccccc1 (stereo not given in full) | – | > 100 | > 100 | > 100 | > 100 | > 100 | – | – | – | – | – | – |
| CC(=O)[CH-]C(=O)c1ccccc1.CC(=O)[CH-]C(=O)c1ccccc1.O=S(=O)([O-])c1cc([O-])c2c([O-])cc(S(=O)(=O)[O-])cc2c1.[Na+].[Ti+4] | > 100 | > 100 | > 100 | > 100 | – | > 100 | > 100 | 84.5 | > 100 | – | > 100 | > 100 |
| NC(CCc1ncc(C(=O)O)s1)C(=O)O (stereo not given) | – | > 100 | > 100 | > 100 | > 100 | > 100 | – | – | – | – | – | – |
| Cc1ccc(C)c(N2C(=O)C(=O)C(c3nc4ccccc4o3)/C(=N\NC(=O)c3ccccc3O)C2=O)c1 (stereo not given) | > 100 | > 100 | > 100 | 63 | > 100 | > 100 | – | – | – | – | – | – |
| O=C1CC2CCN(C(=O)c3ccccc3)CC2CCN1 (stereo not given) | > 100 | > 100 | > 100 | > 100 | > 100 | > 100 | – | – | – | – | – | – |
| Cc1ccc2[c](c1)[Sn]([c]1ccccc1)([c]1ccccc1)[c]1cc(C)ccc1N2C | > 100 | 29.6 | 90.7 | > 100 | > 100 | > 100 | > 100 | 31.8 | 37.9 | 5.58 µM and 15.7 µM | 80.5 | 13.2 |
| NC(=O)c1cn(Cc2ccccc2)c(=O)n1Cc1ccccc1 | > 100 | > 100 | – | > 100 | > 100 | > 100 | – | – | – | – | – | – |
| O=C1C=CC(=CC=C2C=CN(CCCCCCCCCCC(=O)NCCCCCCCCCCCC(=O)O)C=C2)C=C1 | > 100 | > 100 | > 100 | > 100 | > 100 | > 100 | – | – | – | – | – | – |
